Measured values taken from US9856511B2, “Protease deubiquitinating inhibitor screening” (priority 2011, dated 2018).

Experiments:
USP5 = target: T1, USP5 (Homo sapiens, UniProt P45974); test: HA-UbVS competitive labelling, non-proteasomal DUB; format: binding
T1 sequence (P45974 1-858): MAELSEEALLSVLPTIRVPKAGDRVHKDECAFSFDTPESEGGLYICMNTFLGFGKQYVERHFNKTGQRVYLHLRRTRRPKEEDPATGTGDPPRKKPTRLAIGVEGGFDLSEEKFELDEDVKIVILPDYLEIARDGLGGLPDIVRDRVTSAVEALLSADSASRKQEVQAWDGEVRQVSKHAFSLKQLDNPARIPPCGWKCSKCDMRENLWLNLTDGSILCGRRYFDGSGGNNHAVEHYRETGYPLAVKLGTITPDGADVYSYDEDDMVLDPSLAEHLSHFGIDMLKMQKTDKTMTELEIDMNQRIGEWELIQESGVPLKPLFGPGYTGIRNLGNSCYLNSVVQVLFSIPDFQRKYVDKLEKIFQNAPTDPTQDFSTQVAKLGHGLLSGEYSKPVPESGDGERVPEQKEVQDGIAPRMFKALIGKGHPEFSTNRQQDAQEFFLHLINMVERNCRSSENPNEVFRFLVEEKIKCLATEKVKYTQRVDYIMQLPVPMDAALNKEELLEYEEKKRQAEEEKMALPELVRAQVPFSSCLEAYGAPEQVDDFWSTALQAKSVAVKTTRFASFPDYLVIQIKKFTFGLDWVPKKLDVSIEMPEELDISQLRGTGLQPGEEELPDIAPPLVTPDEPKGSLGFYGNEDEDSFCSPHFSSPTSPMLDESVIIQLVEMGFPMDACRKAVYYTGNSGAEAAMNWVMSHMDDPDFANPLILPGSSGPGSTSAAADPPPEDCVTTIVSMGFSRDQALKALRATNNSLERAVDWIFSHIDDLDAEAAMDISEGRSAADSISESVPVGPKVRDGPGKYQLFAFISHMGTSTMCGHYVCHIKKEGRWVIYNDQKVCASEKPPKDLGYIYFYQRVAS
From the text: (§1) The deubiquitinating activity of the proteasome is attributed to the action of three DUBs, UCHL5, USP14 and POH1, all localized within the 19S RP 26-28. Both UCHL5 and USP14 are sensitive to N-ethylmaleimide (NEM), a general inhibitor of cysteine proteases, whereas POH1 is insensitive to inhibition by NEM but sensitive to metal chelators such as N,N,N,N-tetrakis-(2-pyridylmethyl)ethylenediamine (TPEN) (29). […] To identify specifically which DUBs were inhibited by b-AP15 treatment, competitive labelling experiments were performed using hemagglutinin tagged ubiquitin vinylsulphonone (HA-UbVS), an active site directed probe that irreversibly reacts with DUBs of the cysteine class (26).
(§2) For labelling of DUBs in cell lysates sub confluent cells were harvested by trypsinization, washed three times with PBS, and centrifuged at 1500 RPM for 5 min. Cell pellets were lysed with buffer (50 mM HEPES pH 7.4, 250 mM sucrose, 10 mM MgCl2, 2 mM ATP, 1 mM DTT) on ice for 15 min. Debris was removed by centrifugation and 25 μg of protein was labelled with 1 μM HA-UbVS for 30 min at 37° C. Samples were resolved by SDS-PAGE and analyzed by immunoblotting with indicated antibodies.

UCHL1 = target: T2, UCHL1 (Homo sapiens, UniProt P09936); test: HA-UbVS competitive labelling, non-proteasomal DUB; format: binding
T2 sequence (P09936 1-223): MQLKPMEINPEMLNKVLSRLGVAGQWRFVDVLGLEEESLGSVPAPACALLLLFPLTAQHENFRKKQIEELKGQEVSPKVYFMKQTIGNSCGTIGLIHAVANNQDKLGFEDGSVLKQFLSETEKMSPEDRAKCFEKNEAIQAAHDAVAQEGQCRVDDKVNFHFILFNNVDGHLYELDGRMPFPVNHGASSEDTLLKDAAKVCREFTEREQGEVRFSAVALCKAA
From the text: as §1, §2

With `C=CC(=O)N1C/C(=C\c2ccc([N+](=O)[O-])cc2)C(=O)/C(=C/c2ccc([N+](=O)[O-])cc2)C1` [b-AP15] the “activity of non-proteasomal DUB USP5” value (USP5) was “without affecting the activity” and the “activity of non-proteasomal DUB UCHL1” value (UCHL1) was “without affecting the activity”.
